Experimental data reported in patent US8815305B2, “Composition containing a plant extract and process for producing same” (BASF Beauty Care Solutions France S.A.S., priority 2003, dated 2014).

What was measured:
[1] = system: human keratinocytes; assay: Cytophotoprotection of human keratinocytes against UV-B radiation; type: cell-based; conditions: for Cell number, % against control / Released LDH, % against control / Released PGE2, % against control: UVB
Source text: UV-B irradiation (from 280 to 320 nm) of the human skin induces a cutaneous inflammation mainly by activation of an enzyme (phospholipase A2 or PLA2), which releases arachidonic acid from the cell membranes of the cells of the skin (V. A. De Leo, D. Hanson, I. B. Weinstein and L. C. Harber—Ultraviolet radiation stimulates the release of arachidonic acid from mammalian cells in culture—Photochemistry and Photobiology (1985) volume 41N°1 pages 51-56). Then other specific enzymes (so called cyclo-oxygenases) transform arachidonic acid in active components called prostaglandines (or PG) which are secreted out of the cells. The fixation of certain prostaglandins (PGE2) on specific skin receptors is followed by redness and swelling as after a sunburn. On cultured human cells, these UV-B effects on cell membranes are associated with a release in the supernatant medium of a cytoplasmic enzyme, the Lactate Dehydrogenase or LDH (B. Bonnekoh, B. Farkas, J. Geisel and G. Mahrle—Lactate dehydrogenase release as an indicator of dithranol-induced membrane injury in cultured human keratinocytes. Dermatological research (1990) volume 282, pages 325-331).
Expressed in keywords, the experiments were carried out as follows: • Inoculation of human keratinocytes within growth medium (standard medium with fetal calf serum (FCS) • Incubation 3 days at 37° C., CO2=5% • Exchange of growth medium with balanced salt solution containing ingredient to be tested • Irradiation of keratinocytes by UV-B: 50 mJ/cm^2 (DUKE GL40E lamp) (A DUKE GL40E lamp is a certain type of marketed sunlamp well known to the skilled artisan) • Incubation 1 day at 37° C., CO2=5% • Numeration of adherent cells after trypsination (trypsination is a process based on the use of the enzyme trypsine which is a protease allowing the retrieval of cell from the support in order to seed the cells into a bigger flask and therefore to expand the cell culture) • Recovery of supernatant medium for spectrophotometric determination of the activity of LDH, and PGE2 by ELISA method

[2] = biological target: T1, bovine trypsin (Bos taurus, UniProt P00760); conditions: competitive or non-competitive; cited from earlier work
T1 sequence (P00760 24-246): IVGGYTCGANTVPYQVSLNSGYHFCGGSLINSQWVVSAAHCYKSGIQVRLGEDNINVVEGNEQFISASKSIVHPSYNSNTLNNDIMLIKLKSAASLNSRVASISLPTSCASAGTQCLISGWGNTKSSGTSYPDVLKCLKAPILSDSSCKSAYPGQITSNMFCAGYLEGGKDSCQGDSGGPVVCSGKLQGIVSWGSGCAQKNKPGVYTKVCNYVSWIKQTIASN

[3] = biological target: bovine chymotrypsin (Bos taurus, UniProt P00766); conditions: competitive or non-competitive; cited from earlier work
[4] = system: leucine aminopeptidase; conditions: cited from earlier work
[5] = system: leucine aminopeptidase; conditions: cited from earlier work; remark: listed apart in the source
[6] = biological target: porcine pancreatic elastase (Sus scrofa, UniProt P00772); conditions: cited from earlier work
[7] = system: Croton oil induced oedema of the mouse ear; conditions: cited from earlier work
[8] = biological target: T2, human leucocyte elastase (HLE) (Homo sapiens, UniProt P08246); conditions: read-out: HLE inhibitory activity IC(50); cited from earlier work
T2 sequence (P08246 30-267): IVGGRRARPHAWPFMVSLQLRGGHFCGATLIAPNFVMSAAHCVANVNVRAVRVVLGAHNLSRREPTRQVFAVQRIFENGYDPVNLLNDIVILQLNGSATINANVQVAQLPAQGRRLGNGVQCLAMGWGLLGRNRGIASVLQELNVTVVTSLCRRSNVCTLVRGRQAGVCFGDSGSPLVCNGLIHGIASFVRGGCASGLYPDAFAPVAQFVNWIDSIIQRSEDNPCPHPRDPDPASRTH

[9] = system: 5-lipoxygenase products in human neutrophils; conditions: cited from earlier work
[10] = biological target: T2, human leucocyte elastase (HLE); conditions: cited from earlier work
[11] = biological target: elastase from pancreas (Sus scrofa, UniProt P00772); assay: Elastase inhibition, Elastin-Congo red as substrate; type: biochemical; conditions: 30 minutes at room temperature, Elastin-Congo red
Experimental: This test was carried out with an elastase from pancreas on Elastin labelled with Congo red. The time of incubation was 30 minutes at room temperature and the optical density of released Congo red was recorded after centrifugation at a wavelength of 520 nm. al-antitrypsine was used as positive reference.
The following table summarizes the results expressed as EC 50 in % w/v. (EC 50 in % w/v is the concentration in % w/v which reduces the enzymatic activity by 50%.)

[12] = system: human fibroblasts; assay: Cytophotoprotection of human fibroblasts against UV-A radiation; type: cell-based
Experimental: The cytoprotection against UV-A radiation was evaluated by a test on human fibroblasts because UV-A radiation penetrates through the epidermis until the derma where it induces oxidative stress (DALLE CARBONARE M, PATHAK M A; Skin photosensitising agents and the role of reactive oxygen species in photoaging; JOURNAL OF PHOTOCHEMISTRY & PHOTOBIOLOGY, 1992, 14, 1-2, pages 105-124. This oxidative stress was evaluated in vitro by measuring of the level of released MDA (malonaldehyde) and of intracellular GSH (reduced glutathione) (Morliere P., Moisan A., Santus R., Huppe G., Mazière J. C., Dubertret L.: UV-A induced lipid peroxydation in cultured human fibroblasts. Biochim. Biophys. Acta, 1084, 3, pages 261-269 (1991)).
Expressed in keywords, the experiments were carried out as follows: • Inoculation of human fibroblasts within a growth medium (standard medium with foetal calf serum (FCS) • Incubation 3 days at 37° C., CO2=5% • Exchange of growth medium with balanced salt solution • Irradiation of fibroblasts by UV-A: 20 J/cm^2 (black light TFWN lamp) (A TFWN lamp is a certain type of marketed sunlamp well known to the skilled artisan) • Exchange of growth medium with standard medium without FCS but containing ingredient to be tested • Incubation 3 days at 37° C., CO2=5% • Recovery of supernatant medium for spectrophotometric determination of the malonaldialdehde (or MDA) rate • Cells number determined by evaluation of the levels of cellular proteins (Bradford's method) and the rate of cellular GSH was evaluated according to the method of Hissin

porcine pancreatic elastase, sequence (P00772 27-266): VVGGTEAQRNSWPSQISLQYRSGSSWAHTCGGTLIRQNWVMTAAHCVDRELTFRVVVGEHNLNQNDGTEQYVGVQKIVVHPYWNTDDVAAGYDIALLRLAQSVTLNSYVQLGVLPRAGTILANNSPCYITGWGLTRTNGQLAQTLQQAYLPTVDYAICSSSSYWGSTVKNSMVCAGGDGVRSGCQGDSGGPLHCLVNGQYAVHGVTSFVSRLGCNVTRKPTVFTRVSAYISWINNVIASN
elastase from pancreas, sequence (P00772 27-266): as above

COc1ccc2c(c1)c(CC(=O)O)c(C)n2C(=O)c1ccc(Cl)cc1 [Indomethacine, Indomethacin]
UV toxic effects on the number of viable cells (cell number and released LDH) [1]: moderately reduced | release of inflammatory mediators such as PGE2 [1]: drastically reduced | Cell number, % against control [1]: 34% | Released LDH, % against control [1]: 77% | Released PGE2, % against control [1]: 0%

C=C(C)[C@@H]1CC[C@]2(C)CC[C@]3(C)[C@H](CC[C@@H]4[C@@]5(C)CC[C@H](OC(=O)CCCCCCCCCCCCCCC)C(C)(C)[C@@H]5CC[C@]43C)[C@@H]12 [lupeol palmitate]
Ki [2]: 10 µM

C[C@H]1[C@H](C)CC[C@]2(C)CC[C@]3(C)C(=CC[C@@H]4[C@@]5(C)CC[C@H](O)C(C)(C)[C@@H]5CC[C@]43C)[C@H]12 [alpha-amyrin]
Ki [3]: 18 µM | inhibition of Helicoverpa punctigera leucine aminopeptidase [4]: ineffective or very weak | Ki [2]: 29 µM | inhibition of Lucilia cuprina leucine aminopeptidase [5]: ineffective or very weak | inhibition of porcine pancreatic elastase [6]: ineffective or very weak

CC(=O)Oc1ccccc1C(=O)O [Aspirin]
UV toxic effects on the number of viable cells (cell number and released LDH) [1]: distinctly reduced | release of inflammatory mediators such as PGE2 [1]: distinctly reduced | Cell number, % against control ([1]; dose 0.0003%): 67% | Released LDH, % against control ([1]; dose 0.0003%): 13% | Released PGE2, % against control ([1]; dose 0.0003%): 0%

CCCCCCCCCCCCCCCC(=O)OC1CCC2(C)C(CCC3(C)C2CCC2C4C(C)C(C)=CCC4(C)C(O)CC23C)C1(C)C (stereo not drawn) [faradiol-3-palmitic acid ester]
anti-oedematous activity [7]: nearly the same dose dependent anti-oedematous activity

C=C(C)[C@@H]1CC[C@]2(C)CC[C@]3(C)C(CC[C@@H]4[C@@]5(C)CC[C@H](OC(=O)CCCCCCC/C=C/C/C=C/CCCCC)C(C)(C)[C@@H]5CC[C@]43C)[C@@H]12 (stereo partly drawn) [Lupeol linoleate]
Ki [2]: 7 µM

C=C(C)[C@@H]1CC[C@]2(C)CC[C@]3(C)[C@H](CC[C@@H]4[C@@]5(C)CC[C@H](O)C(C)(C)[C@@H]5CC[C@]43C)[C@@H]12 [lupeol]
Ki [3]: 8 µM | inhibition of Helicoverpa punctigera leucine aminopeptidase [4]: ineffective or very weak | Ki [2]: 22 µM | inhibition of Lucilia cuprina leucine aminopeptidase [5]: ineffective or very weak | inhibition of porcine pancreatic elastase [6]: ineffective or very weak | IC50 [8]: 1.9 µM

CC(=O)O[C@H]1CC[C@]2(C)[C@H]3CC=C4[C@@H]5[C@@H](C)[C@H](C)CC[C@]5(C)CC[C@@]4(C)[C@]3(C)CC[C@H]2C1(C)C [alpha-amyrin acetate]
5-HETE synthesis [9]: reduced | LTB4 synthesis [9]: without effect

CC1=CCC2(C)CCC3(C)C(CCC4C5(C)CCC(O)C(C)(C)C5CCC43C)C2C1C (stereo not drawn) [psi-taraxasterol]
anti-oedematous activity [7]: slightly lower effect

CCCCCC=CCC=CCCCCCCCC(=O)OC1CCC2(C)C(CCC3(C)C2CC=C2C4C(C)C(C)CCC4(C)CCC23C)C1(C)C (stereo not drawn) [alpha-amyrin linoleate]
Ki [3]: 28 µM | Ki [2]: 16 µM

CC1(C)CC[C@]2(C(=O)O)CC[C@]3(C)C(=CC[C@@H]4[C@@]5(C)CC[C@H](O)[C@@](C)(CO)[C@@H]5CC[C@]43C)[C@@H]2C1 [hederagenin]
interaction with the ursolic acid binding site of HLE [10]: can also interact with this binding site

faradiol-3-myristic acid ester
anti-oedematous activity [7]: nearly the same dose dependent anti-oedematous activity

CC(=O)O[C@H]1CC[C@]2(C)[C@H]3CC=C4[C@@H]5CC(C)(C)CC[C@]5(C)CC[C@@]4(C)[C@]3(C)CC[C@H]2C1(C)C [beta-amyrin acetate]
5-HETE synthesis [9]: reduced | LTB4 synthesis [9]: without effect

CC1(C)CC[C@]2(C)CC[C@]3(C)C(=CC[C@@H]4[C@@]5(C)CC[C@H](O)C(C)(C)[C@@H]5CC[C@]43C)[C@@H]2C1 [beta-amyrin]
5-HETE synthesis [9]: reduced | LTB4 synthesis [9]: without effect

CCCCCCCCCCCCCCCC(=O)O[C@H]1CC[C@]2(C)[C@H]3CC=C4[C@@H]5[C@@H](C)[C@H](C)CC[C@@]5(C)CC[C@@]4(C)[C@]3(C)CC[C@H]2C1(C)C [alpha-Amyrin palmitate]
Ki [3]: 6 µM

A1 anti trypsine: positive reference of the elastase test
Elastase EC 50 (concentration which reduces the enzymatic activity by 50%) [11]: 0.03% w/v

Tocopherol
protection of human fibroblasts from toxic UVA effects [12]: strongly protected | GSH/protein, % against control ([12]; UV-A 20 J/cm^2, dose 0.0003%): 89% | Released MDA, % against control ([12]; UV-A 20 J/cm^2, dose 0.0003%): 23% | cell's protein, % against control ([12]; UV-A 20 J/cm^2, dose 0.0003%): 106%

CC1=CC[C@@]2(C)[C@H]([C@@H]1C)[C@H]1CC[C@@H]3[C@@]4(C)CC[C@H](O)C(C)(C)[C@@H]4CC[C@@]3(C)[C@]1(C)C[C@@H]2O [faradiol]
anti-oedematous activity [7]: more active than its esters and than psi-taraxasterol | anti-oedematous effect compared with indomethacin ([7]; equimolar dose): same effect

CC1(C)[C@@H](O)CC[C@]2(C)[C@H]3C(=O)C=C4[C@@H]5C[C@@](C)(C(=O)O)CC[C@]5(C)CC[C@@]4(C)[C@]3(C)CC[C@@H]12 [18 beta-glycyrrhetic acid]
interaction with the ursolic acid binding site of HLE [10]: can also interact with this binding site

C[C@H]1C(=O)CC[C@@H]2[C@]1(C)CC[C@H]1[C@@]2(C)CC[C@@]2(C)[C@@H]3CC(C)(C)CC[C@]3(CO)CC[C@]12C [canophyllol]
IC50 [8]: 2.5 µM
